Series [1] has as its system 4T1-Luc cells. The class given is cell-based, murine. The conditions noted are these: 200 µM, 1% DMSO; for ATP synthesis inhibition (decrease of luminescence): free compounds, 2 h and 4 h. Here is the method: ATP synthesis in real time in vitro was monitored by modified luciferin–luciferase assay using 4T1-Luc cells expressing luciferase. Briefly, 4T1-Luc cells were seeded in black 96-well plates (Greiner, France) (1 × 10^4 cells/well) 48 h before the experiment. Cell medium was replaced with the mixtures (150 µL/well) of D-luciferin (150 µg/mL, saturating concentration) alone (control) and with examined substance (200 µM of free 2,4-DNP or its derivatives or their liposomal forms) in RPMI 1640 medium (10% FBS, 4.5 g/L glucose, 100 U/mL penicillin, 100 µg/mL streptomycin и 0.25 µg/mL Gibco amphotericin), plate was put into the Luminometer chamber (EnSpire multimode plate reader, Perkin Elmer, USA), and kinetic of luciferin–luciferase reaction was detected at 37 °C (flashes/time 0.1 s). 2,4-DNP esters were dissolved in DMSO before the use. The total concentration of DMSO in final solution per well was 1%.
The inhibition effect was expressed as (3) Decrease of luminescence=[RLU]max−[RLU]t/[RLU]max×100%, where [RLU]max—relative luminescence units at the maximum of the kinetic profile; [RLU]t—relative luminescence units at certain time point.

Series [2] concerns 4T1-Luc cells. In words: cells. The conditions noted are these: Mus musculus, read-out: IC50 (cytotoxicity). The class given is cell-based, murine. Here is the method:
(§1) Murine breast cancer cell line expressing luciferase (4T1-Luc) and hepatocytes isolated from the normal liver of a 3-month-old mouse (AML12) were purchased from ATCC, (CRL-2539-LUC2 and CRL-2254). The cells were cultivated in RPMI 1640 or DMEM-F12 with 10% FBS, 4.5 g/L glucose, 100 U/mL penicillin, 100 µg/mL streptomycin and 0.25 µg/mL Gibco amphotericin at 37 °C, 5% CO2.
(§2) 4T1-Luc or AML12 cells were seeded in a 96-well plate (1 × 10^4 cells/well) in 200 µL/well of complete RPMI or DMEM-F12 medium and incubated at 37 °C with 5% CO2 for 48 h. Then, the medium was replaced with 100 µL/well RPMI or DMEM-F12 medium in the absence (control) or presence of various amounts of the tested compounds and incubated at 37 °C with 5% CO2 for 24 h; 10 µL/well WST-1 solution (CELLPRO-RO Roche, St. Louis, MO, USA) was added to each well and incubated under culture conditions for 2 h. The absorbance of the samples was measured at 450 nm.

A further series has as its target luciferase (Photinus pyralis, UniProt P08659). Description: Control: addition to the luciferin–luciferase mixture. The following applies: 200 µM added to the luciferin–luciferase mixture; data are not presented. The format is biochemical.
Another series in a line: in vitro. The class given is cell-based, mouse. The following applies: mouse; AML12, 24 h incubation, WST-1, free compounds in 1% DMSO; read-out: IC50 (cytotoxicity). The procedure: as §1, §2
Series [3] is classed as physicochemical. The following applies: octanol/distilled water (pH 5.5), mean ± StD. The procedure: Lipophilicity of the obtained 2,4-DNP derivatives was measured by octanol–water equilibrium method. Before the experiment, we mixed octanol and water in a flask, shook it vigorously, and then waited for the two phases separation. After reaching of equilibrium, the two phases are mutually saturated with one another. Next, 0.5 mg of each test compound was dissolved in 1 mL of octanol phase, and then 1 mL of distillated water phase was added (pH 5.5) and properly stirred for 1 min three times. The mixture was incubated under vigorous stirring for 1 h. Next, the mixture was centrifugated to separate octanol–water phases. The concentration of the compound was determined in octanol and water using HPLC method. The octanol–water partition coefficient was estimated as follows:(1) LogP=Log[C]octanol/[C]water
Concentration of 2,4-DNP and its esters was measured using high-performance liquid chromatography (HPLC) (Knauer Smart line, Berlin, Germany) with UV-detector and a reversed-phase shim-pack 100-5-C18 column (Kromasil, […], particle size 5 μm). The mobile phase was a mixture of acetonitrile and 0.1% citric acid water solution (60/40, v/v). The mobile phase flow-rate was 0.8 mL/min, the injection volume was […], and the detection wavelength was set at 275 nm. Chromatograms were analyzed using ChromGate version 3.3.2 software (Berlin, Germany). The retention time is 4.5 min for 2,4-DNP and 6.5 min for esters.

The conditions of series [4]: pH 7.4.
Experimental: Procedure: All samples were dispersed in 10 mM PBS (pH = 7. 4). Then the aliquots were incubated at a room tempera-
ture and at 65 °C for 1 h. After that we made several TLC for each sample representing heated and non-heated sub-
In another series the test system is AML12 cells. Description: in vitro. The class given is cell-based, mouse. The conditions noted are these: AML12, 24 h incubation, WST-1, free compounds in 1% DMSO; read-out: IC50 (cytotoxicity). Here is the method:
as §1, §2

Entries after “also recorded” stand apart in the source; their conditions may differ. Where two headings read alike, the source gives them in different places.

Chain of luciferase (P08659 whole entry): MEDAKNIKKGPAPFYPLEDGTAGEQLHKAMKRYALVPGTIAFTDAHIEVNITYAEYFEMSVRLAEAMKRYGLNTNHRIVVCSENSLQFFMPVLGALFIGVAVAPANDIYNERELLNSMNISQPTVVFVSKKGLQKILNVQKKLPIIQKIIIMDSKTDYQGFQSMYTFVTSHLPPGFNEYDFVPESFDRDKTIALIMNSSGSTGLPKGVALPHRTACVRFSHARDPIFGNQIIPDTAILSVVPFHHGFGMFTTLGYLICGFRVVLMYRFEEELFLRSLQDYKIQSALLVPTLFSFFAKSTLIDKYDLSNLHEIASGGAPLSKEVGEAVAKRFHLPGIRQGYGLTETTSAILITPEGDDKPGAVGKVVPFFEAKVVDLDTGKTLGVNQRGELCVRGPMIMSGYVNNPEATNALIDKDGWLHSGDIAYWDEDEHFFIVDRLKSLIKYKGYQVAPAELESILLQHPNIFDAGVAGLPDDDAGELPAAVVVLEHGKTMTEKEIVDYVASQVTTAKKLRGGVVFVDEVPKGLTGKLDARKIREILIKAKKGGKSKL

Consider `CCC(=O)O` [propionic acid, Propionic acid, reference compound], for which the “ATP level after free carboxylic acids” value in the series on 4T1-Luc cells [1] was “did not show an increase in the ATP level”.

On to `O=[N+]([O-])c1ccc(O)c([N+](=O)[O-])c1` [2,4-DNP, 2,4-dinitrophenol], for which the IC50 in the series on 4T1-Luc cells [2] (24 h) is ~400 µM. Also, the Luciferase activity entry on luciferase was “did not influence the luciferase activity”. Further, in the series “in vitro”, the IC50 at 24 h was 500 to 600 µM. This molecule also registered a LogPoct in series [3] of 1.61 ± 0.30.

With `CCCCCCCCCCCCCCCC(=O)Oc1ccc([N+](=O)[O-])cc1[N+](=O)[O-]` [2,4-DNP-C16, 2,4-DNP Palmitic Acid Ester], the IC50 was 100 to 150 µM with 4T1-Luc cells [2] (24 h incubation, WST-1, free compounds in 1% DMSO) and ~200 µM in the series “in vitro”. Besides, the “ATP synthesis inhibition (decrease of luminescence)” value in the series with 4T1-Luc cells [1] was “neglectable decrease in the ATP level”. In series [3], this molecule showed a LogPoct of 5.18 ± 0.79.

`CCC(=O)Oc1ccc([N+](=O)[O-])cc1[N+](=O)[O-]` [2,4-DNP-C3, 2,4-Dinitrophenol Propionic Acid Ester]: the “Ester stability (hydrolysis)” value in series [4] is “most unstable ester”. Moreover, the IC50 with AML12 cells was ~200 µM. In addition, in the series with 4T1-Luc cells [1], the “ATP synthesis inhibition (decrease of luminescence)” value is “higher inhibition effects in comparison to the free 2,4-DNP”. Also, the LogPoct in series [3] was 1.91 ± 0.24.

Regarding `CCCCCCCCCCCCCCCC(=O)O` [palmitic acid, Palmitic acid, reference compound], in the series on 4T1-Luc cells [1], the “ATP level after free carboxylic acids” value is “did not show an increase in the ATP level”.

For the molecule `CCCCCC(=O)Oc1ccc([N+](=O)[O-])cc1[N+](=O)[O-]` [2,4-DNP-C6, 2,4-Dinitrophenol Caproic Acid Ester], the IC50 with AML12 cells was ~200 µM. Moreover, in the series with 4T1-Luc cells [1], the “ATP synthesis inhibition (decrease of luminescence)” value is listed as “higher inhibition effects in comparison to the free 2,4-DNP; also recorded: sustained inhibition of ATP synthesis”. Besides, the LogPoct in series [3] is 3.07 ± 0.31.

Turning to `CCCCCC(=O)O` [caproic acid, Hexanoic acid, reference compound], the “ATP level after free carboxylic acids” value with 4T1-Luc cells [1] was “did not show an increase in the ATP level”.

(Values after paper PMC9268429, “Liposomal Form of 2,4-Dinitrophenol Lipophilic Derivatives as a Promising Therapeutic Agent for ATP Synthesis Inhibition” (Nanomaterials, 2022).)
